Results reported in ChEMBL document CHEMBL1141662, “Synthesis and antiproliferative activity of aryl- and heteroaryl-hydrazones derived from xanthone carbaldehydes” (Eur J Med Chem, 2008).

How the values were obtained:
[1] = Antiproliferative activity against human KB 3.1 cells assessed as cell viability at 1 uM after 24 hrs by MTT assay; format: functional; conditions: KB 3-1, 24 h, read-out: Activity
[2] = Antiproliferative activity against human KB 3.1 cells after 24 hrs by MTT assay; format: functional, cell-based; conditions: KB 3-1, 24 h
MCF7 [3] = assay: Antiproliferative activity against human MCF7 cells assessed as cell viability at 10 uM after 24 hrs by MTT assay; format: functional; conditions: MCF7, 24 h, read-out: Activity
[4] = Antiproliferative activity against human KB 3.1 cells assessed as cell viability at 10 uM after 24 hrs by MTT assay; format: functional; conditions: KB 3-1, 24 h, read-out: Activity
MCF7 [5] = assay: Antiproliferative activity against human MCF7 cells after 24 hrs by MTT assay; format: functional, cell-based; conditions: MCF7, 24 h
MCF7 [6] = assay: Antiproliferative activity against human MCF7 cells assessed as cell viability at 1 uM after 24 hrs by MTT assay; format: functional; conditions: MCF7, 24 h, read-out: Activity
[7] = Ratio of IC50 for human KB 3.1 cells after 24 hrs to IC50 for human KB 3.1 cells after 72 hrs by MTT assay; format: functional
MCF7 [8] = assay: Ratio of IC50 for human […] cells after 24 hrs to IC50 for human MCF7 cells after 72 hrs by MTT assay; format: functional
MCF7 [9] = assay: Antiproliferative activity against human MCF7 cells after 72 hrs by MTT assay; format: functional, cell-based; conditions: MCF7, 72 h
[10] = Antiproliferative activity against human KB 3.1 cells after 72 hrs by MTT assay; format: functional, cell-based; conditions: KB 3-1, 72 h

IC50 (MCF7 [5])	IC50 (MCF7 [9])	Compound	viability at 1 µM [1]	IC50 [2]	viability at 10 µM (MCF7 [3])	viability at 10 µM [4]	viability at 1 µM (MCF7 [6])	Ratio IC50 [7]	Ratio IC50 (MCF7 [8])	IC50 [10]
9.3 µM	7 µM	CC(=O)Oc1cc(OC(C)=O)c2c(=O)c3cc(/C=N/NC4=NCCN4)ccc3oc2c1	100%	11.3 µM	14%	14%	64%	2.4	1.3	4.7 µM
		CC(=O)Oc1cc(OC(C)=O)c2c(=O)c3cc(/C=N/Nc4ccccn4)ccc3oc2c1	98%		70%	60%	85%			
		O=c1c2cccc(/C=N\Nc3ccccn3)c2oc2cc(O)cc(O)c12	96%		12%	3%	86%			
		CC(=O)Oc1cc(OC(C)=O)c2c(=O)c3cccc(/C=N\Nc4ccccc4)c3oc2c1	100%		100%	82%	100%			
		O=c1c2cc(/C=N/NC3=NCCN3)ccc2oc2cc(O)cc(O)c12	99%		64%	92%	90%			
		O=c1c2ccc(/C=N/Nc3ccccc3)cc2oc2cc(O)cc(O)c12	100%		100%	61%	100%			
		CC(=O)Oc1cc(OC(C)=O)c2c(=O)c3ccc(/C=N/Nc4ccccn4)cc3oc2c1	100%		100%	87%	100%			
		O=c1c2cc(/C=N/Nc3ccccn3)ccc2oc2cc(O)cc(O)c12	95%		41%	90%	58%			
		O=c1c2cc(/C=N/Nc3ccccc3)ccc2oc2cc(O)cc(O)c12	100%		72%	82%	100%			
		CC(=O)Oc1cc(OC(C)=O)c2c(=O)c3ccc(/C=N/Nc4ccccc4)cc3oc2c1	100%		100%	100%	100%			
		O=c1c2ccc(/C=N/Nc3ccccn3)cc2oc2cc(O)cc(O)c12	77%		3%	2%	100%			
		COc1cccc2c1C(=O)c1c(O)c3c(c(O)c1C2=O)C[C@@](O)(C(=O)CO)C[C@@H]3O[C@H]1C[C@H](N)[C@H](O)[C@H](C)O1 [DOXORUBICIN]		0.01 µM						0.0004 µM
5.1 µM	5.6 µM	CC(=O)Oc1cc(OC(C)=O)c2c(=O)c3cccc(/C=N\NC4=NCCN4)c3oc2c1	95%	6.8 µM	48%	66%	80%	1.05	0.9	6.5 µM
		O=c1c2cccc(/C=N\Nc3ccccc3)c2oc2cc(O)cc(O)c12	100%		100%	96%	100%			
		O=c1c2cccc(/C=N\NC3=NCCN3)c2oc2cc(O)cc(O)c12	90%		82%	75%	97%			
1.9 µM	2.4 µM	CC(=O)Oc1cc(OC(C)=O)c2c(=O)c3ccc(/C=N/NC4=NCCN4)cc3oc2c1	85%	1.6 µM	13%	13%	35%	0.9	0.8	1.8 µM
		CC(=O)Oc1cc(OC(C)=O)c2c(=O)c3cccc(/C=N\Nc4ccccn4)c3oc2c1	95%		79%	90%	80%			
		CC(=O)Oc1cc(OC(C)=O)c2c(=O)c3cc(/C=N/Nc4ccccc4)ccc3oc2c1	100%		100%	100%	100%			
		O=c1c2ccc(/C=N/NC3=NCCN3)cc2oc2cc(O)cc(O)c12	93%		70%	80%	73%			
